The test system of this test is graft tissue oxidant stress. As to the kind of experiment: thiobarbituric acid reactive substances (TBARs). It is filed as in vivo, rat. The settings on record: NTG in EC, 6 h. As for the experimental part:
Thirty minutes following ligation of the native right pulmonary artery, or at the time of recipient death, transplanted lungs were removed, rinsed briskly in physiologic saline, and snap frozen in liquid nitrogen until the time of myeloperoxidase or TBARs assay.
The assay was performed by homogenizing tissue in 1.15% KCl (10 ml/gm of tissue). To 0.2 ml of 10% (w/v) tissue homogenate, the following was added; 0.2 mL of 8.1% sodium dodecyl sulfate (SDS; Sigma), 1.5 mL of 20% acetic acid solution (pH 3.5), 1.5 mL of 0.8% aqueous solution of thiobarbituric acid (Sigma), and 0.6 mL of double distilled water. This mixture was heated to 95° C. for 60 minutes followed by rapid cooling to room temperature. An organic extraction was performed by adding 1.0 mL of double distilled water and 5.0 mL of n-butanol:pyridine (15:1, v/v), vortexing, and then centrifuging at 4000 rpm for 10 minutes. The water-immiscible (organic) layer was recovered for measurement of absorbance at 532 nm. Experiments were performed using 1,1,3,3,-tetramethoxypropane as a standard, with the level of lipid peroxides expressed as nmol of malondialdehyde (MDA)/mg protein. Protein content was determined by the method of Lowry et. al^38.

As for `O=[N+]([O-])OCC(CO[N+](=O)[O-])O[N+](=O)[O-]` [NTG, nitroglycerin], the “graft oxidant stress, TBARs” value is listed as “reduced graft oxidant stress”.

For the origin of these results see patent US5552267A, “Solution for prolonged organ preservation” (priority 1994, dated 1996).
